Results: patent US20130316965A1, “IDRABI[…] THE TREATMENT OF PULMONARY EMBOLISM AND FOR THE SECONDARY PREVENTION OF VENOUS THRO[…]” (priority 2011, published 2013)

Experiments:
Format in all cases: in vivo, human
[1] = test system: patients with symptomatic pulmonary embolism with or without symptomatic deep venous thrombosis; test: CASSIOPEA (EFC6034) phase III clinical trial: clinically relevant bleeding (safety); details: for Hazard ratio, clinically relevant bleeding: idrabiotaparinux vs warfarin
Source text: According to the instant invention, the term “bleedings” designates any clinically relevant bleeding (i.e. major or clinically relevant non-major hemorrhage).
According to the instant invention, the term “major bleedings” designates any of the following clinical situations: • bleeding associated with a fall in hemoglobin of 2 g per deciliter or more, • bleeding that led to a transfusion of 2 or more units of packed red cells or whole blood (a red cell unit being defined as the quantity of red cells obtained from or corresponding to approximately 500 ml of whole blood), • bleeding that involved a critical organ (intracranial, intraocular, intraspinal, retroperitoneal or pericardial), • bleeding that contributed to death.
(§1) A blinded central and independent adjudication committee (CIAC) assesses PE (and DVT when applicable), all episodes of locally confirmed or doubtful PE/DVT recurrences, clinically relevant bleedings and deaths. Adjudication results are the basis for the final analyses.
The principal safety outcome is any clinically relevant bleeding as classified by the CIAC (i.e. major bleeding and other clinically relevant non-major bleeding).
Bleeding analyses are also performed on the—All-randomized—population. Other safety analyses are performed on the—All-treated—population.
Rates of clinically relevant bleedings are calculated in each treatment group at 3 months (99 days) and 6 months (190 days) and compared between treatment groups using a Mantel-Haenszel chi-square stratified on intended treatment duration. Cumulative incidences of clinically relevant bleedings during the combined 3-month and 6-month period and up to the end of study are described by treatment group using the Kaplan Meier method.

[2] = test system: patients with symptomatic pulmonary embolism with or without symptomatic deep venous thrombosis; test: CASSIOPEA (EFC6034) phase III clinical trial: benefit-risk assessment (PE, DVT or major bleeding composite); details: Randomized population
Source text: Tables 13 and 14 show the incidence of pulmonary embolism, deep venous thrombosis or major bleedings (composite endpoint) in the randomized population in the treatment phase (3-month or 6-month treatment with idrabiotaparinux) and up to the end of the study (assessment at 12 months).

[3] = test system: patients with symptomatic pulmonary embolism with or without symptomatic deep venous thrombosis; test: CASSIOPEA (EFC6034) phase III clinical trial: symptomatic recurrent PE/DVT (efficacy); details: for Hazard ratio, symptomatic recurrent PE/DVT: idrabiotaparinux vs warfarin
Procedure: Patients with confirmed symptomatic PE with or without acute symptomatic DVT are eligible for this trial. Treatment with a therapeutic dose of any LMWH or UFH or fondaparinux is allowed only within the 36 hours immediately preceding randomization. Randomization is performed as soon as the diagnosis of PE (and DVT if concomitant suspected symptomatic DVT) is confirmed.
as §1
Patients in the 3-month stratum have an additional 13-week observational period after cessation of study treatment. Patients in the 6-month stratum have a 13-week up to 26-week observational period.
Injections of SSR126517E (or its placebo) is started 12 h after the last post-randomization enoxaparin administration. SSR126517E (or its placebo) is administered s.c. once-weekly for a period of 3 or 6 months. All patients receive a first 0.5 ml injection (3.0 mg in the SSR126517E group). The following injections are also 0.5 ml, except in patients with severe renal insufficiency (defined as creatinine clearance <30 mL/min), who decrease to a dosage of 0.3 ml (1.8 mg in the SSR126517E group).
The primary efficacy outcome is symptomatic recurrent PE/DVT (fatal or not), as validated by the CIAC, within 99 days for patients from both strata (3- and 6-month treatments).
A secondary efficacy outcome for patients in the 6-month stratum is symptomatic recurrent PE/DVT, as validated by the CIAC, within 190 days.
There are 2 additional efficacy outcomes: • the time to first symptomatic recurrent PE/DVT (fatal or non fatal) within the patient's treatment period, i.e. a combined analysis of the 3-and 6-month strata patients; • the separate components of the efficacy outcomes within 99 days (all patients) and within 190 days (6-month stratum patients only).
The definitions to confirm a suspected symptomatic episode of recurrent PE/DVT are as follows:
Efficacy analyses are performed on the—All-randomized—population (patients with a patient number and an allocated treatment number recorded in the IVRS database).
The secondary efficacy outcome (VTE recurrence within 190 days) for patients in the 6-month stratum is analyzed using the same method and applying the same non-inferiority margin.
Time to first symptomatic recurrent PE/DVT within the patient's study treatment period for all patients is analyzed using Cox's proportional hazards model, stratified on intended treatment duration.

[4] = test system: patients with symptomatic pulmonary embolism with or without symptomatic deep venous thrombosis; test: CASSIOPEA (EFC6034) phase III clinical trial: deaths; details: overall
Source text: as §1

[5] = Randomized population in the 6-month stratum
[6] = combined 3-month and 6-month period
[7] = combined 3-month and 6-month periods, time-to-event analysis (Kaplan-Meier)
[8] = treatment period plus 3 to 6-month post-treatment follow-up (up to end of study)
[9] = Cox proportional hazards model, stratified
[10] = Randomized population, All patients
[11] = Randomized population, Patients with VKA beyond D99/D190
[12] = Randomized population, Patients with no VKA beyond D99/D190
[13] = Randomized population, or death for which PE could not be ruled out

Structure (SMILES): CO[C@H]1O[C@H](COS(=O)(=O)O)[C@@H](O[C@@H]2O[C@@H](C(=O)O)[C@@H](O[C@H]3O[C@H](COS(=O)(=O)O)[C@@H](O[C@@H]4O[C@H](C(=O)O)[C@@H](O[C@H]5O[C@H](COS(=O)(=O)O)[C@@H](OC)[C@H](OC)[C@H]5NC(=O)CCCCCNC(=O)CCCC[C@@H]5SC[C@@H]6NC(=O)N[C@@H]65)[C@H](OC)[C@H]4OC)[C@H](OS(=O)(=O)O)[C@H]3OS(=O)(=O)O)[C@H](OC)[C@H]2OC)[C@H](OS(=O)(=O)O)[C@H]1OS(=O)(=O)O [Idrabiotaparinux, idrabiotaparinux]
- Any clinically relevant bleeding within 190 days: Idrabiotaparinux vs. Warfarin odds ratio ([1]; 6-month stratum): 0.81
- Clinically relevant bleedings up to Day 190 ([1]; 6-month stratum): 6.6%
- Fatal bleeding within 190 days from randomization: Patients with event ([1]; 6-month stratum): 7 (0.6%) n (%)
- Fatal bleeding within 190 days: Idrabiotaparinux to Warfarin odds ratio (95% CI) ([1]; 6-month stratum): 1.40 (0.44 to 4.42)
- Intracranial haemorrhage (fatal or not) within 190 days from randomization: Patients with event ([1]; 6-month stratum): 8 (0.6%) n (%)
- Intracranial haemorrhage (fatal or not) within 190 days: Idrabiotaparinux to Warfarin odds ratio (95% CI) ([1]; 6-month stratum): 1.33 (0.46 to 3.85)
- Major bleeding within 190 days from randomization: Patients with event ([1]; 6-month stratum): 24 (1.9%) n (%)
- Major bleeding within 190 days: Idrabiotaparinux to Warfarin odds ratio (95% CI) ([1]; 6-month stratum): 0.66 (0.39 to 1.11)
- Patients who experienced a major bleeding up to Day 190 ([1]; 6-month stratum): 1.9%
- Any clinically relevant bleeding within 99 days from randomization: Patients with event ([1]; Randomized population): 72 (4.5%) n (%)
- Fatal bleeding within 99 days from randomization: Patients with event ([1]; Randomized population): 3 (0.2%) n (%)
- Fatal bleeding within 99 days: Idrabiotaparinux to Warfarin odds ratio (95% CI) ([1]; Randomized population): 0.50 (0.13 to 2.01)
- Intracranial haemorrhage (fatal or not) within 99 days from randomization: Patients with event ([1]; Randomized population): 4 (0.3%) n (%)
- Intracranial haemorrhage (fatal or not) within 99 days: Idrabiotaparinux to Warfarin odds ratio (95% CI) ([1]; Randomized population): 0.57 (0.17 to 1.96)
- Major bleeding within 99 days from randomization: Patients with event ([1]; Randomized population): 20 (1.3%) n (%)
- Major bleeding within 99 days: Idrabiotaparinux to Warfarin odds ratio (95% CI) ([1]; Randomized population): 0.51 (0.30 to 0.88)
- Any clinically relevant bleeding within 190 days from randomization: Patients with event [1, 5]: 84 (6.6%) n (%)
- Any clinically relevant bleeding within 99 days: Idrabiotaparinux vs. Warfarin odds ratio ([1]; Randomized population, Mantel-Haenszel, stratified): 0.67
- Major bleeding within 99 days: Idrabiotaparinux to Warfarin odds ratio (95% CI) ([1]; Randomized population, listed as idrabiotaparinux): 0.51
- Hazard ratio, clinically relevant bleeding [1, 6]: 0.70
- Cumulative incidence of clinically relevant bleeding at Day 99 [1, 7]: 4.6%
- Cumulative incidence of clinically relevant bleeding at Day 190 [1, 7]: 6.6%
- Cumulative incidence rate of clinically relevant bleeding at Day 360 [1, 8]: 8.3%
- Incidence of clinically relevant bleeding up to Day 99 ([1]; up to Day 99): 4.5%
- Patients who experienced a major bleeding up to Day 99 ([1]; up to Day 99): 1.3%
- Hazard ratio, clinically relevant bleeding ([1]; up to the end of study): 0.79
- PE, DVT or major bleeding in the combined 3-month and 6-month period: Idrabiotaparinux vs. Warfarin Odds ratio [2, 9]: 0.66
- PE, DVT or major bleeding up to the end of study: Idrabiotaparinux vs. Warfarin Odds ratio [2, 9]: 0.54
- PE, DVT or major bleeding in the combined 3-month and 6-month period: Patients with event ([2]; composite endpoint): 65 (4.1%) n (%)
- PE, DVT or major bleeding up to the end of study: Patients with event ([2]; composite endpoint): 82 (5.1%) n (%)
- DVT only within 190 days from randomization: Patients with event ([3]; 6-month stratum): 7 (0.6%) n (%)
- Non-fatal PE within 190 days from randomization: Patients with event ([3]; 6-month stratum): 9 (0.7%) n (%)
- Symptomatic recurrent PE/DVT (fatal or not) from randomization to end of study: Patients with event ([3]; 6-month stratum, All patients): 37 (2.9%) n (%)
- Symptomatic recurrent PE/DVT (fatal or not) from randomization to end of study: Patients with event ([3]; 6-month stratum, Patients with VKA beyond D190): 10 (3.2%) n (%)
- Symptomatic recurrent PE/DVT (fatal or not) from randomization to end of study: Patients with event ([3]; 6-month stratum, Patients with no VKA beyond D190): 27 (2.8%) n (%)
- Reducing the risk of symptomatic recurrent PE/DVT up to Day 190 (non-inferiority) ([3]; 6-month stratum, non-inferiority margin 2.0): at least as effective as warfarin
- Fatal PE within 190 days from randomization: Patients with event ([3]; 6-month stratum, or death for which PE could not be ruled out): 13 (1.0%) n (%)
- Patients who experienced DVT up to Day 190 ([3]; 6-month stratum, up to Day 190): 0.6%
- DVT only up to the end of study: Patients with event ([3]; Randomized population): 10 (0.6%) n (%)
- DVT only within 99 days from randomization: Patients with event ([3]; Randomized population): 5 (0.3%) n (%)
- Non-fatal PE up to the end of study: Patients with event ([3]; Randomized population): 16 (1.0%) n (%)
- Non-fatal PE within 99 days from randomization: Patients with event ([3]; Randomized population): 13 (0.8%) n (%)
- Symptomatic recurrent PE/DVT (fatal or not) within 190 days from randomization: Patients with event [3, 5]: 29 (2.3%) n (%)
- Symptomatic recurrent PE/DVT within 190 days: Idrabiotaparinux vs. Warfarin odds ratio [3, 5]: 0.80
- Symptomatic recurrent PE/DVT (fatal or not) from D100/D191 to end of study: Patients with event [3, 10]: 9 (0.6%) n (%)
- Symptomatic recurrent PE/DVT (fatal or not) from randomization to end of study: Patients with event [3, 10]: 48 (3.0%) n (%)
- Symptomatic recurrent PE/DVT within 99 days: Idrabiotaparinux vs. Warfarin odds ratio ([3]; Randomized population, Mantel-Haenszel, stratified on intended treatment duration): 0.79
- Symptomatic recurrent PE/DVT (fatal or not) from D100/D191 to end of study: Patients with event [3, 11]: 4 (1.0%) n (%)
- Symptomatic recurrent PE/DVT (fatal or not) from randomization to end of study: Patients with event [3, 11]: 12 (3.1%) n (%)
- Symptomatic recurrent PE/DVT (fatal or not) from D100/D191 to end of study: Patients with event [3, 12]: 5 (0.5%) n (%)
- Symptomatic recurrent PE/DVT (fatal or not) from randomization to end of study: Patients with event [3, 12]: 36 (3.0%) n (%)
- Fatal PE up to the end of study: Patients with event [3, 13]: 22 (1.4%) n (%)
- Fatal PE within 99 days from randomization: Patients with event [3, 13]: 16 (1.0%) n (%)
- Symptomatic recurrent PE/DVT (fatal or not) within 99 days from randomization: Patients with event ([3]; Randomized population, within 99 days): 34 (2.1%) n (%)
- Reducing the risk of symptomatic recurrent PE/DVT up to Day 99 (non-inferiority) ([3]; all randomized population, non-inferiority margin 2.0): at least as effective as warfarin
- Hazard ratio, symptomatic recurrent PE/DVT [3, 6]: 0.77
- Cumulative incidence of symptomatic recurrent PE/DVT at Day 99 [3, 7]: 2.2%
- Cumulative incidence of symptomatic recurrent PE/DVT at Day 190 [3, 7]: 2.6%
- Cumulative incidence rate of symptomatic recurrent PE/DVT at Day 360 [3, 8]: 3.1%
- Patients who experienced DVT up to Day 99 ([3]; up to Day 99): 0.3%
- Patients who experienced DVT up to the end of study ([3]; up to the end of study): 0.6%
- Patients who experienced non-fatal PE up to the end of study ([3]; up to the end of study): 1.0%
- Hazard ratio, symptomatic recurrent PE/DVT ([3]; up to the end of the study): 0.49
- Risk reduction in the occurrence of symptomatic recurrent PE/DVT ([3]; up to the end of the study, vs warfarin): 51%
- Patients who died on study [4]: 5.9%
